System: MV-4-11 cells
Assay: Gene expression microarray analysis (Affymetrix PrimeView) and GSEA
Format: cell-based, human
Set-up: RFU PODN (11730768_x_at) / Fold change /veh PODN (11730768_x_at) / RFU LINC00158 (11744669_a_at) / Fold change /veh LINC00158 (11744669_a_at) / RFU DUSP10 (11751237_a_at) / Fold change /veh DUSP10 (11751237_a_at) / RFU ID3 (11757404_x_at) / Fold change /veh ID3 (11757404_x_at) / RFU PLEKHG5 (11737974_s_at) / Fold change /veh PLEKHG5 (11737974_s_at) / RFU LRRC4B (11730491_at) / Fold change /veh LRRC4B (11730491_at) / RFU GIMAP4 (11747438_a_at) / Fold change /veh GIMAP4 (11747438_a_at) / RFU KRT8 (11758183_x_at) / Fold change /veh KRT8 (11758183_x_at) / RFU CNN1 (11734310_a_at) / Fold change /veh CNN1 (11734310_a_at) / RFU VPS37D (11726825_at) / Fold change /veh VPS37D (11726825_at) / RFU C10orf10 (11716522_x_at) / Fold change /veh C10orf10 (11716522_x_at) / RFU KIR2DL2 /// KIR2DL4 /// KIR2DL5A /// KIR2DL5B /// KIR2DS1 /// KIR2DS2 /// KIR2DS3 /// KIR2DS4 /// KIR3DL3 /// KIR3DL3 /// KIR3DS1 (11738374_at) / Fold change /veh KIR2DL2 /// KIR2DL4 /// KIR2DL5A /// KIR2DL5B /// KIR2DS1 /// KIR2DS2 /// KIR2DS3 /// KIR2DS4 /// KIR3DL3 /// KIR3DL3 /// KIR3DS1 (11738374_at) / RFU C1QL1 (11718748_at) / Fold change /veh C1QL1 (11718748_at) / RFU TMPRSS4 (11747572_a_at) / Fold change /veh TMPRSS4 (11747572_a_at) / RFU HAMP (11756126_x_at) / Fold change /veh HAMP (11756126_x_at) / RFU RNFT2 (11725882_a_at) / Fold change /veh RNFT2 (11725882_a_at) / RFU NR4A2 (11747474_a_at) / Fold change /veh NR4A2 (11747474_a_at) / RFU ABCC12 (11746883_a_at) / Fold change /veh ABCC12 (11746883_a_at) / RFU TMEM136 (11760407_x_at) / Fold change /veh TMEM136 (11760407_x_at) / RFU CLDN22 /// WWC2 (11732394_at) / Fold change /veh CLDN22 /// WWC2 (11732394_at) / RFU HLA-DPB1 (11760878_x_at) / Fold change /veh HLA-DPB1 (11760878_x_at) / RFU SPINT1 (11716480_a_at) / Fold change /veh SPINT1 (11716480_a_at) / RFU GAP43 (11754022_s_at) / Fold change /veh GAP43 (11754022_s_at) / RFU A4GNT (11735810_at) / Fold change /veh A4GNT (11735810_at) / RFU PRB3 (11715151_x_at) / Fold change /veh PRB3 (11715151_x_at) / RFU TUBB4B (11761932_at) / Fold change /veh TUBB4B (11761932_at) / RFU CAPN14 (11732068_a_at) / Fold change /veh CAPN14 (11732068_a_at) / RFU TMCC2 (11721928_a_at) / Fold change /veh TMCC2 (11721928_a_at) / RFU IRGQ (11745062_a_at) / Fold change /veh IRGQ (11745062_a_at) / RFU FAM174B (11720279_a_at) / Fold change /veh FAM174B (11720279_a_at) / RFU TMPRSS4 (11748680_a_at) / Fold change /veh TMPRSS4 (11748680_a_at) / RFU FAM212B (11763350_a_at) / Fold change /veh FAM212B (11763350_a_at) / RFU PLEKHG5 (11743358_a_at) / Fold change /veh PLEKHG5 (11743358_a_at) / RFU ZSCAN30 (11745921_a_at) / Fold change /veh ZSCAN30 (11745921_a_at) / RFU CMKLR1 (11741424_a_at) / Fold change /veh CMKLR1 (11741424_a_at) / RFU LOC101060620 /// MAPK8IP1 (11723275_at) / Fold change /veh LOC101060620 /// MAPK8IP1 (11723275_at) / RFU SPTSSB (11747773_x_at) / Fold change /veh SPTSSB (11747773_x_at) / RFU PRSS12 (11739890_at) / Fold change /veh PRSS12 (11739890_at) / RFU BIN1 (11741810_x_at) / Fold change /veh BIN1 (11741810_x_at) / RFU WNT11 (11732464_a_at) / Fold change /veh WNT11 (11732464_a_at) / RFU C10orf10 (11716521_a_at) / Fold change /veh C10orf10 (11716521_a_at) / RFU C5orf56 (11738089_at) / Fold change /veh C5orf56 (11738089_at) / RFU CYB561 (11721691_x_at) / Fold change /veh CYB561 (11721691_x_at) / RFU ANKRD19P (11752326_a_at) / Fold change /veh ANKRD19P (11752326_a_at) / RFU OR2T12 /// OR2T33 /// OR2T8 (11738714_s_at) / Fold change /veh OR2T12 /// OR2T33 /// OR2T8 (11738714_s_at) / RFU VCAN (11748164_a_at) / Fold change /veh VCAN (11748164_a_at) / RFU JSRP1 (11732532_at) / Fold change /veh JSRP1 (11732532_at) / RFU KRTAP10-11 (11738290_x_at) / Fold change /veh KRTAP10-11 (11738290_x_at) / RFU MYO3A (11730013_a_at) / Fold change /veh MYO3A (11730013_a_at) / RFU EBF3 (11725865_a_at) / Fold change /veh EBF3 (11725865_a_at) / RFU CAMK2N1 (11719241_x_at) / Fold change /veh CAMK2N1 (11719241_x_at) / RFU C5orf56 (11738088_a_at) / Fold change /veh C5orf56 (11738088_a_at) / RFU OLFML3 (11715873_a_at) / Fold change /veh OLFML3 (11715873_a_at) / RFU LOC100653217 /// NTM (11731650_a_at) / Fold change /veh LOC100653217 /// NTM (11731650_a_at) / RFU MAPK11 (11762145_a_at) / Fold change /veh MAPK11 (11762145_a_at) / RFU FIZ1 (11724087_x_at) / Fold change /veh FIZ1 (11724087_x_at) / RFU OASL (11726364_x_at) / Fold change /veh OASL (11726364_x_at) / RFU SOX15 (11748057_x_at) / Fold change /veh SOX15 (11748057_x_at) / RFU CD79A (11719716_a_at) / Fold change /veh CD79A (11719716_a_at) / RFU HIST1H1D (11736915_at) / Fold change /veh HIST1H1D (11736915_at) / RFU CASKIN2 (11723855_a_at) / Fold change /veh CASKIN2 (11723855_a_at) / RFU LOC730098 (11760151_x_at) / Fold change /veh LOC730098 (11760151_x_at) / RFU OR4N2 (11742367_at) / Fold change /veh OR4N2 (11742367_at) / RFU PRRT2 (11749266_a_at) / Fold change /veh PRRT2 (11749266_a_at) / RFU SNX32 (11753110_a_at) / Fold change /veh SNX32 (11753110_a_at) / RFU CDHR5 (11726645_a_at) / Fold change /veh CDHR5 (11726645_a_at) / RFU RCAN1 (11760418_a_at) / Fold change /veh RCAN1 (11760418_a_at) / RFU FAM167A (11723789_a_at) / Fold change /veh FAM167A (11723789_a_at) / RFU FAM26E (11764081_at) / Fold change /veh FAM26E (11764081_at) / RFU ISYNA1 (11749810_s_at) / Fold change /veh ISYNA1 (11749810_s_at) / RFU ACY1 (11761880_at) / Fold change /veh ACY1 (11761880_at) / RFU 11764098_at / Fold change /veh 11764098_at / RFU SAMD14 (11745864_x_at) / Fold change /veh SAMD14 (11745864_x_at) / RFU NPB (11741838_a_at) / Fold change /veh NPB (11741838_a_at) / RFU TMPRSS6 (11731388_a_at) / Fold change /veh TMPRSS6 (11731388_a_at) / RFU KRTAP10-2 (11738614_at) / Fold change /veh KRTAP10-2 (11738614_at) / RFU ARHGAP8 /// PRR5-ARHGAP8 (11727945_x_at) / Fold change /veh ARHGAP8 /// PRR5-ARHGAP8 (11727945_x_at) / RFU KRTAP5-7 /// NADSYN1 (11734609_at) / Fold change /veh KRTAP5-7 /// NADSYN1 (11734609_at) / RFU RASL12 (11751679_a_at) / Fold change /veh RASL12 (11751679_a_at) / RFU CDKN2B (11736163_a_at) / Fold change /veh CDKN2B (11736163_a_at) / RFU PRF1 (11729649_at) / Fold change /veh PRF1 (11729649_at) / RFU, ZNF638 /// ZNF638-IT1 / Fold change vs veh, ZNF638 /// ZNF638-IT1 / RFU, PANK3 / Fold change vs veh, PANK3 / RFU, SH3YL1 / Fold change vs veh, SH3YL1 / RFU, ZEB2 / Fold change vs veh, ZEB2 / RFU, NRIP1 / Fold change vs veh, NRIP1 / RFU, PTTG1IP / Fold change vs veh, PTTG1IP / RFU, CAPN2 / Fold change vs veh, CAPN2 / RFU, MED14 / Fold change vs veh, MED14 / RFU, SNORA58 / Fold change vs veh, SNORA58 / RFU, C1orf63 / Fold change vs veh, C1orf63 / RFU, LRRFIP1 / Fold change vs veh, LRRFIP1 / RFU, NDUFAF7 / Fold change vs veh, NDUFAF7 / RFU, SLC12A2 / Fold change vs veh, SLC12A2 / RFU, IBTK / Fold change vs veh, IBTK / RFU, ESF1 / Fold change vs veh, ESF1 / Fold change vs veh, TMEM50B / RFU, TAOK1 / Fold change vs veh, TAOK1 / RFU, ACBD3 / Fold change vs veh, ACBD3 / RFU, TMA16 / Fold change vs veh, TMA16 / RFU, RWDD3 / Fold change vs veh, RWDD3 / RFU, BCAT1 / Fold change vs veh, BCAT1 / RFU, EDEM3 / Fold change vs veh, EDEM3 / RFU, TMEM33 / Fold change vs veh, TMEM33 / RFU, WDR75 / Fold change vs veh, WDR75 / RFU, AHCTF1 / Fold change vs veh, AHCTF1 / RFU, TFRC / Fold change vs veh, TFRC / RFU, ZDHHC17 / Fold change vs veh, ZDHHC17 / RFU, NOM1 / Fold change vs veh, NOM1 / RFU, ARL8B / Fold change vs veh, ARL8B / RFU, ZBTB11 / Fold change vs veh, ZBTB11 / RFU, TAMM41 / Fold change vs veh, TAMM41 / RFU, KIAA1704 /// LOC100996395 / Fold change vs veh, KIAA1704 /// LOC100996395 / RFU, ING1 / Fold change vs veh, ING1 / RFU, TRMT61B / Fold change vs veh, TRMT61B / RFU, FUBP3 / Fold change vs veh, FUBP3 / RFU, TP53 / Fold change vs veh, TP53 / RFU, TNKS2 / Fold change vs veh, TNKS2 / RFU, ZFP14 / Fold change vs veh, ZFP14 / RFU, ACTR2 / Fold change vs veh, ACTR2 / RFU, PPP3R1 / Fold change vs veh, PPP3R1 / RFU, PIK3R1 / Fold change vs veh, PIK3R1 / RFU, HNRNPA1 / Fold change vs veh, HNRNPA1 / RFU, RNF170 / Fold change vs veh, RNF170 / RFU, ZNF28 / Fold change vs veh, ZNF28 / RFU, RNGTT / Fold change vs veh, RNGTT / RFU, OGT / Fold change vs veh, OGT / RFU, BRD1 / Fold change vs veh, BRD1 / RFU, MARS / Fold change vs veh, MARS / RFU, ZNF655 / Fold change vs veh, ZNF655 / RFU, FAHD1 / Fold change vs veh, FAHD1 / RFU, BDP1 / Fold change vs veh, BDP1 / RFU, LRRCC1 / Fold change vs veh, LRRCC1 / RFU, ARID1A / Fold change vs veh, ARID1A / RFU, ZNF146 / Fold change vs veh, ZNF146 / RFU, ZNF330 / Fold change vs veh, ZNF330 / RFU, GPN3 / Fold change vs veh, GPN3 / RFU, C9orf123 / Fold change vs veh, C9orf123 / RFU, N4BP2L2 / Fold change vs veh, N4BP2L2 / RFU, ARFIP1 / Fold change vs veh, ARFIP1 / RFU, FAM179B / Fold change vs veh, FAM179B / RFU, BCL10 / Fold change vs veh, BCL10 / RFU, UHRF1BP1L / Fold change vs veh, UHRF1BP1L / RFU, BET1 / Fold change vs veh, BET1 / RFU, CNOT2 / Fold change vs veh, CNOT2 / RFU, ZNF268 / Fold change vs veh, ZNF268 / Fold change vs veh, ZNF507 / RFU, DGCR2 / Fold change vs veh, DGCR2 / RFU, WDSUB1 / Fold change vs veh, WDSUB1 / Fold change vs veh, HSP90B1 /// MIR3652 / RFU, ADSS / Fold change vs veh, ADSS / RFU, GK / Fold change vs veh, GK / RFU, ZNF148 / Fold change vs veh, ZNF148 / RFU, TAF9 / Fold change vs veh, TAF9 / RFU, SLC1A5 / Fold change vs veh, SLC1A5 / RFU, SLMO2 / Fold change vs veh, SLMO2 / RFU, ABCC4 / Fold change vs veh, ABCC4 / RFU, LOC101060439 /// RAP1B / Fold change vs veh, LOC101060439 /// RAP1B / RFU, RFX7 / Fold change vs veh, RFX7 / RFU, GTPBP10 / Fold change vs veh, GTPBP10 / RFU, CNEP1R1 / Fold change vs veh, CNEP1R1 / RFU, BIVM-ERCC5 /// ERCC5 / Fold change vs veh, BIVM-ERCC5 /// ERCC5 / RFU, ILF3 / Fold change vs veh, ILF3 / RFU 11762660_at / Fold change /veh 11762660_at / RFU VCAN (11757783_s_at) / Fold change /veh VCAN (11757783_s_at) / RFU DDX43 (11728927_at) / Fold change /veh DDX43 (11728927_at) / RFU KRT8 (11758188_x_at) / Fold change /veh KRT8 (11758188_x_at) / RFU NKD1 (11759106_at) / Fold change /veh NKD1 (11759106_at) / RFU SRD5A1 (11742802_a_at) / Fold change /veh SRD5A1 (11742802_a_at) / RFU TPSAB1 /// TPSB2 (11721975_s_at) / Fold change /veh TPSAB1 /// TPSB2 (11721975_s_at) / RFU GSTM3 (11746129_a_at) / Fold change /veh GSTM3 (11746129_a_at) / RFU IL23R (11737362_x_at) / Fold change /veh IL23R (11737362_x_at) / RFU TMEM51 (11727254_a_at) / Fold change /veh TMEM51 (11727254_a_at) / RFU PIWIL2 (11732686_x_at) / Fold change /veh PIWIL2 (11732686_x_at) / RFU ORM1 (11744905_x_at) / Fold change /veh ORM1 (11744905_x_at) / RFU CCDC152 (11743942_at) / Fold change /veh CCDC152 (11743942_at) / RFU ECM1 (11717891_a_at) / Fold change /veh ECM1 (11717891_a_at) / RFU IL23R (11748794_a_at) / Fold change /veh IL23R (11748794_a_at) / RFU TNFAIP8L3 (11732012_x_at) / Fold change /veh TNFAIP8L3 (11732012_x_at) / RFU MBOAT4 (11741988_at) / Fold change /veh MBOAT4 (11741988_at) / RFU 11764193_at / Fold change /veh 11764193_at / RFU TMEM53 (11763286_at) / Fold change /veh TMEM53 (11763286_at) / RFU MAGEB2 (11727129_at) / Fold change /veh MAGEB2 (11727129_at) / RFU TMEM200A (11744735_a_at) / Fold change /veh TMEM200A (11744735_a_at) / RFU CCDC152 (11751479_a_at) / Fold change /veh CCDC152 (11751479_a_at) / RFU FAM211A (11726209_a_at) / Fold change /veh FAM211A (11726209_a_at) / RFU RGS16 (11746705_a_at) / Fold change /veh RGS16 (11746705_a_at) / RFU VCAN (11755009_s_at) / Fold change /veh VCAN (11755009_s_at) / RFU RHOB (11743442_s_at) / Fold change /veh RHOB (11743442_s_at) / RFU RGS16 (11720943_a_at) / Fold change /veh RGS16 (11720943_a_at) / RFU RGS16 (11720944_at) / Fold change /veh RGS16 (11720944_at) / RFU, VPS4B / Fold change vs veh, VPS4B / RFU, CREB1 / Fold change vs veh, CREB1 / RFU, DNAJC13 / Fold change vs veh, DNAJC13 / RFU, GNAQ / Fold change vs veh, GNAQ / RFU, CDK5R1 / Fold change vs veh, CDK5R1 / RFU, ZRANB3 / Fold change vs veh, ZRANB3 / RFU, CUL4A / Fold change vs veh, CUL4A / RFU, CCNY / Fold change vs veh, CCNY / RFU, UFL1 / Fold change vs veh, UFL1 / RFU, COG3 / Fold change vs veh, COG3 / RFU, DIAPH2 / Fold change vs veh, DIAPH2 / RFU, SKA2 / Fold change vs veh, SKA2 / RFU, AFF3 / Fold change vs veh, AFF3 / RFU, LMF1 / Fold change vs veh, LMF1 / RFU, IPO11 / Fold change vs veh, IPO11 / RFU, DFFB / Fold change vs veh, DFFB / RFU, FOXP1 / Fold change vs veh, FOXP1 / RFU, CARD8 / Fold change vs veh, CARD8 / RFU, STRN3 / Fold change vs veh, STRN3 / RFU, ADK / Fold change vs veh, ADK / RFU, RASSF2 / Fold change vs veh, RASSF2 / RFU, WIPF1 / Fold change vs veh, WIPF1 / RFU, LARP1B / Fold change vs veh, LARP1B / RFU, RASA1 / Fold change vs veh, RASA1 / RFU, RB1 / Fold change vs veh, RB1 / RFU, PPFIA1 / Fold change vs veh, PPFIA1 / RFU, MAT2A / Fold change vs veh, MAT2A / RFU, CCT5 / Fold change vs veh, CCT5 / RFU, WDR92 / Fold change vs veh, WDR92 / RFU, CUX1 / Fold change vs veh, CUX1 / RFU, TTC7A / Fold change vs veh, TTC7A / RFU, TMEM135 / Fold change vs veh, TMEM135 / RFU, DEPTOR / Fold change vs veh, DEPTOR / RFU, CPM / Fold change vs veh, CPM / RFU, DNAJB6 / Fold change vs veh, DNAJB6 / RFU, CACNA2D3 / Fold change vs veh, CACNA2D3 / RFU, DTX4 / Fold change vs veh, DTX4 / RFU, TFCP2 / Fold change vs veh, TFCP2 / RFU, GMCL1 /// GMCL1P1 / Fold change vs veh, GMCL1 /// GMCL1P1 / RFU, AEBP2 / Fold change vs veh, AEBP2 / RFU, SNHG1 /// SNORD22 /// SNORD25 /// SNORD26 /// SNORD27 /// SNORD28 /// SNORD29 /// SNORD31 / Fold change vs veh, SNHG1 /// SNORD22 /// SNORD25 /// SNORD26 /// SNORD27 /// SNORD28 /// SNORD29 /// SNORD31 / Fold change (Aza/veh), C12orf56 (ProbeSet 11735607_a_at) / Fold change (ACY-1035/veh), C12orf56 (ProbeSet 11735607_a_at) / Fold change (Aza/veh), FGFR1OP (ProbeSet 11751329_s_at) / Fold change (ACY-1035/veh), FGFR1OP (ProbeSet 11751329_s_at) / Fold change (Aza/veh), VPS36 (ProbeSet 11739960_a_at) / Fold change (ACY-1035/veh), VPS36 (ProbeSet 11739960_a_at) / RFU SYPL1 (11715823_x_at) / Fold change /veh SYPL1 (11715823_x_at) / RFU IGFBP7 (11715501_s_at) / Fold change /veh IGFBP7 (11715501_s_at) / RFU REEP3 (11722064_at) / Fold change /veh REEP3 (11722064_at) / RFU IGLL1 (11728026_x_at) / Fold change /veh IGLL1 (11728026_x_at): dose or concentration left out as unconfirmed
Details: MV-4-11 cells, 48 hours

Structure (SMILES): Nc1ncn([C@@H]2O[C@H](CO)[C@@H](O)[C@H]2O)c(=O)n1 [azacitidine]
- RFU LOC101060620 /// MAPK8IP1 (11723275_at): 10.14 RFU
